Data taken from a melting point compilation (Tetko et al.; mined from patent text by program, amines drawn as free bases though some values may be those of a salt).

Row | Structure (SMILES) | melting point [°C]
1 | Nc1ccc(-c2nc3cc(OCc4ccccc4)ccc3s2)c(Cl)c1 | 119 to 121
2 | O=C(NCC12CC3CC(CC(C3)C1)C2)c1cc(OCCO)ncc1Cl | 154 to 155
3 | Cc1csc2c(Cl)c(Cl)c(O)cc12 | 137 to 139
4 | O=C1Nc2ccc(-c3cccc(Cl)c3)cc2C12OCCCO2 | 242 to 244
5 | Cc1cc(C)c2c(=O)c(N)coc2c1 | 120 to 121
6 | O=C1CSC(C(=O)O)Cc2cc3c(cc21)OCCO3 (stereo not given) | 208 to 209
7 | CC(C)(C)OC(=O)N[C@@H](CC1CCCCC1)[C@@H]1CO1 | 58 to 59.5
8 | NCC1Cc2cc(-c3ccccc3)cc(-c3ccc(F)cc3F)c2O1 (stereo not given) | 159 to 162
9 | N#CN1CCN(c2nn(S(=O)(=O)c3ccccc3)c3ccccc23)CC1 | 178 to 180
10 | CN1CCC(c2c[nH]c3ccc(Sc4ccccc4)cc23)CC1 | 147 to 150
11 | CCC1(CC)CCNC1=O | 52 to 53
12 | CN(CCNC(=NCCCOc1cccc(CN2CCCCC2)c1)NC#N)CCN(Cc1ccc(F)cc1)c1ccccn1 | 106
13 | CCCCCCCCCCCCNc1ncnc2nc[nH]c12 | 159 to 160
14 | c1ccc(-c2ccc(-c3cc4ccccc4[nH]3)cc2)cc1 | 301
15 | C=C1CC(COc2ccc3c(C)c(Cl)c(=O)oc3c2)(c2ccccc2)OC1=O (stereo not given) | 149 to 150
16 | CC1CCC(C(C)C)C(C(=O)NC(C)(C)CO)C1 (stereo not given) | 123
17 | CCNc1nc2ccc(CCc3cn4c(n3)CC(C)CC4)cc2o1 (stereo not given) | 159 to 161
18 | Cc1cc(Br)ccc1C1(CBr)OCCO1 | 86
19 | Cc1cc(C#N)c(Cl)nc1C | 83 to 87
20 | NC1=C(C(=O)c2ccc(Cl)cc2Cl)OC2N=C(O)C=CC12 (stereo not given) | > 305

Row | Structure (SMILES) | melting point [°C]
21 | CCOC(=O)C(C)=CC=CC(C)=CC=CC=C(C)C=CC=C(C)C1OCC(C)(C)CO1 | 158
22 | CN1C(=O)CN=C(c2ccccc2F)c2c1ccc(NC(=O)NCCO)c2Cl | 150 to 153
23 | CN1C[C@H]2c3ccccc3CC[C@H]2CCC1=O (relative stereo) | 130 to 131
24 | O=C1c2ccccc2C(=O)c2c1c(Oc1ccc(CCCO)cc1)c1ccc(Sc3ccccc3)cc1c2Oc1ccc(CCCO)cc1 | 140 to 148
25 | CS(=O)(=O)c1ccc(-c2[nH]c3ccc(Cl)cc3c2-c2ccc(S(C)(=O)=O)cc2)cc1 | 173 to 175
26 | Cn1ccc2ccc(/C=C/CN3CCN(C4c5ccccc5CCc5ncccc54)CC3)cc21 (stereo not given) | 168 to 170
27 | CCN(C)c1nc2sc3c(NCCCN4CCCC4=O)ncnc3c2c2c1CCC(C)(C)C2 | 166 to 167
28 | CCC(C)C(=O)c1nc(C)nc2c1c(C)c(C)n2-c1c(C)cc(C)cc1C (stereo not given) | 133 to 135
29 | CCSCCn1cc(C(=O)NCc2ccc(Cl)cc2)c(=O)c2cc(CN3CCOCC3)ccc21 | 140 to 142
30 | CC1(C)OC(=O)Nc2c(Br)cc(-c3cc(F)cc(C#N)c3)cc21 | 216 to 217
31 | O=c1c2cn[nH]c2nc2n1CCS2 | > 300
32 | CC1CC(=O)NN=C1c1ccc2c(c1)NCCO2 (stereo not given) | 166 to 168
33 | CCNc1nc(C)c(-c2ccnc(Nc3ccc(N4CCSCC4)cc3)n2)s1 | 207 to 209
34 | C1=NCC2=C3C(=C1)CCCC3CCC2 (stereo not given) | 207 to 209
35 | CC(C(=O)O)N1CCC(C)(CS)C1=O (stereo not given) | 132 to 133
36 | O=C1NCCNC1c1cn(Cc2ccccc2Cl)c2ccccc12 (stereo not given) | 181
37 | Cc1cccc(-c2nc3ccccn3c2-c2ccnc(-c3ccc(OC(F)(F)F)cc3)c2)n1 | 120
38 | CC(=O)O[C@]1(C)CC[C@@H]2C[C@H]1OO[C@@]2(C)CS(=O)(=O)c1ccccc1 | 98 to 99
39 | CN1CCN(c2cccc(-n3cnc4cc(C=O)ccc43)c2)CC1 | 199 to 201
40 | c1ccc2[nH]c(SSCCSSc3nc4ccccc4[nH]3)nc2c1 | 190 to 192

Further lines, results first:

Row | melting point [°C] | Structure (SMILES)
41 | 116 to 118 | COC(=O)c1ccc(CC(C#N)(c2ccccc2Cl)N2CCOCC2)cc1 (stereo not given)
42 | 202 to 204 | O=C(O)Cc1ccc2c(c1)C(=O)C(=Cc1ccccc1)C2
43 | 175 to 176 | CCOC(=O)c1c(-c2cccc(C)c2)csc1N1C(=O)c2ccccc2C1=O
44 | 118 to 119 | CC(C)(C)c1cc(CCc2ccc(F)cc2NC(=O)NC2CCN(Cc3ccccc3)CC2)cc(C(C)(C)C)c1O
45 | > 250 | N=C(N)c1ccc(C(=O)N2CCCC2CC(=O)NCCC(=O)O)cc1 (stereo not given)
46 | 211 to 213 | CC(=O)Nc1cc(C)c2c(n1)N(C1CC1)c1ncccc1C(=O)N2C(C)=O
47 | 94 to 96 | NC1(C(=O)NOCc2ccccc2)CCCC1
48 | 190 to 192 | O=C(O)c1ccccc1C(=O)c1ccc(N2CCCC2)cc1O
49 | 235 to 236 | N=C(N)Nc1ncc(Cl)c2ccc(C(=O)NCCC(=O)O)cc12
50 | 145 | COc1cc(-c2nc3ccccc3n2Cc2ccc(Cl)c(Cl)c2)cc(OC)c1OC
51 | 235 to 245 | Cc1c(-c2ccccc2)sc2nc(NCCNC(=O)CCN3CCN(C)CC3)[nH]c(=O)c12
52 | 135 | CCOC(=O)c1c(N2CCN(C(=O)c3cccs3)CC2)c2cnccc2n(Cc2cccc(F)c2)c1=O
53 | 218 to 221 | CC(C)NCC1CCN(c2c(F)cc3c(=O)c(C(=O)O)cn(C4CC4)c3c2F)C1 (stereo not given)
54 | 128 to 132 | O=S1(=O)N=C2CCCN2c2ccc(Oc3cccc(-c4ccoc4)c3)cc21
55 | 117 to 120 | CCCCCCOc1cccc(C[C@H](NC(=O)c2cccc(-c3ncco3)c2)[C@H](O)CNCc2cccc(CC)c2)c1
56 | 144 to 145 | COC(=O)Cc1cccc(CC(=O)OC)c1[N+](=O)[O-]
57 | 195 | CN1CCN(S(=O)(=O)c2cccc(NC(=O)c3cnn4c(C(F)(F)F)cc(-c5ccc(Cl)cc5)nc34)c2)CC1
58 | 115 | COc1cccc(CN2N=C(c3ccc(OC)c(OC)c3)[C@@H]3CCCC[C@@H]3C2=O)c1 (relative stereo)
59 | 227 to 228 | COc1nc2cc(Cl)c(F)c(CS(N)(=O)=O)c2nc1OC
60 | 46 to 49 | Cc1cc(C)cc(COC[C@@H](NC(=O)OC(C)(C)C)c2ccccc2)c1

Row | melting point [°C] | Structure (SMILES)
61 | 160 to 161 | CN(C)C=C(C#N)C(=O)NCc1ccccc1
62 | 172 to 173 | COc1cc2c(cc1O)CCN(C(=O)c1cc(OC)c(OC)c(OC)c1)C2
63 | 178 to 179 | CCCN=CNc1cccc(O)n1
64 | 200 to 201 | CC(C)(O)Cn1c(COc2ccccc2)nc2c(N)nc3ccccc3c21
65 | 126 to 129 | CCC1c2cccn2-c2ccc(C(F)(F)F)cc2N1S(=O)(=O)c1ccc(OC)c(Cl)c1 (stereo not given)
66 | 79 to 81 | Cc1c(Cl)cccc1N=Cc1ccc(Cl)cc1
67 | 40 to 48 | Nc1[nH]ncc1-c1cccc(N2CCN(CCO)CC2)c1
68 | 175 to 177 | Cc1cc(-c2ccccc2)n2nc(C)c(C#N)c2n1
69 | 110 | CC(C)c1ccc(C(=O)c2ccc(N)cc2)cc1
70 | 146 to 148 | CC(C)(C)CC(C)(C)c1ccc(Oc2cc3nc(-c4ccco4)oc3cc2[N+](=O)[O-])cc1
71 | 174 to 176 | O=C(O)Cc1c(C(=O)O)c2cc(Oc3ccc(Cl)c(F)c3)ccc2n1-c1ccccc1
72 | 158 to 161 | COC(=O)c1ccc(NC2CC2)c(S(N)(=O)=O)c1
73 | 183 to 184 | CCOC(=O)c1cc(C(=O)NC)nc(C(=O)NC)c1
74 | 183 to 184 | O=[N+]([O-])c1ccc(-n2nccn2)cc1
75 | 229 to 231 | CN1C2CCCC1CC(NC(=O)c1cccc3nc(-c4ccc(F)cc4)oc13)C2 (stereo not given)
76 | 93 | CCOC(=O)C(C(N)=O)c1cc(OC)c(OC)c(OC)c1 (stereo not given)
77 | 85 to 87 | Cc1ccc(S(=O)(=O)N[C@@H](C)C(=O)Oc2csc(-c3ccccc3)c2)cc1
78 | 138 to 140 | FC(F)(F)c1cccc(-c2ccnc3c(Br)cnn23)c1
79 | 144 to 146 | O=C(O)Cc1cccc(Oc2ccccc2F)c1[N+](=O)[O-]
80 | 252 to 253 | O=C(O)C1=Cc2cc(Cl)c(Sc3ccc(Cl)cc3)cc2OC1C(F)(F)F (stereo not given)

Row | melting point [°C] | Structure (SMILES)
81 | > 300 | CC(=O)Nc1cccc(Nc2ncnc3[nH]cc(C(=O)c4cccc5ccccc45)c23)c1
82 | 113 to 114 | CN(C)S(=O)(=O)c1cc2c(c(Cl)c1Cl)OC(C(=O)OCOC(=O)C(C)(C)C)C2 (stereo not given)
83 | 98 to 100 | CCCCCCCCCCCCCCCCCCS(=O)(=O)c1cc(C(=O)OC)c([N+](=O)[O-])c(C(=O)OC)c1
84 | 113 to 115 | Nc1cc(SCc2ccccc2)ccc1[N+](=O)[O-]
85 | 153 to 154 | COc1cc(C=CCN(C)CCc2ccc(N=C(N)c3cccs3)cc2)cc(OC)c1O
86 | 164 | CC(C)(C)OC(=O)Nc1cc(N2CCC3(CC2)OCCO3)c(-c2ccccc2F)cc1[N+](=O)[O-]
87 | 62 to 63 | CC(C)N(C(=O)CCCCCC(=O)O)c1ccccc1
88 | 240 to 243 | CC(C)c1cc(C(=O)Nc2ccc3[nH]c(C(=O)O)cc3c2)oc1C(C)C
89 | 227 | COc1cc(F)ccc1C(=O)NCCN1CCC(n2c(=O)[nH]c3cc(Cl)ccc32)CC1
90 | 61 to 62 | Cc1cc(CCCCCOc2ccc(C#N)cc2)no1
91 | 258 to 260 | CC(=O)Nc1ncc2cc(-c3c(Cl)cccc3Cl)c(=O)n(C)c2n1
92 | 130 to 133 | CC(=O)OCC1OC(Oc2ccc(N)cc2)C(OC(C)=O)C(OC(C)=O)C1OC(C)=O (stereo not given)
93 | 109 to 111 | COc1ccc(C=Cc2ccc([N+](=O)[O-])cc2)cc1C
94 | 128 to 130 | COC(=O)C1Cc2c([nH]c3ccccc23)C(c2ccc(Cl)cc2Cl)N1 (stereo not given)
95 | 151 to 153 | Cc1nc2c(OCc3ccccc3)cc(Br)cn2c1C
96 | 102 | CCOC(=O)[C@H](O)[C@@H](NC(=O)OC(C)(C)C)c1ccccc1
97 | 55 | CCc1cc2cc([N+](=O)[O-])ccc2s1
98 | > 250 | Nc1nc(O)c2c(n1)NCC(CCc1ccc(C(=O)N[C@@H](CCC(=O)O)C(=O)O)cc1)C2 (stereo not given in full)
99 | 94 to 96 | C=CCOc1cc(CNc2nc(C)nc(C)c2Cl)ccc1OCc1ccccc1
100 | 225 to 226 | Cc1ccccc1-c1c(NC(=O)Nc2ccc(F)cc2F)cnc2sc(Cl)cc12
